Test results published in ChEMBL document CHEMBL4819022, “Discovery of JNJ-63576253: A Clinical Stage Androgen Receptor Antagonist for F877L Mutant and Wild-Type Castration-Resistant Prostate Cancer (mCRPC)” (J Med Chem, 2021).
The source made the active and inactive calls. The calls are words filed in the database; no cut-off is given here.

Legend:
[1] = Drug metabolism in dog liver microsomes assessed as unchanged parent compound at 10 uM incubated for 60 mins in presence of glutathione and NADPH by LC-MS/MS analysis; format: ADME, Canis lupus familiaris, Microsome; settings: read-out: Drug metabolism
[2] = tested on: T1, Androgen receptor (Homo sapiens), P10275 [F877L]; assay: Antagonist activity at AR F877L mutant (unknown origin) transfected in human LNCAP cells cotransfected with ARE-LUC incubated for 20 to 24 hrs in presence of AR agonist R1881 by steady-glo luciferase reporter gene assay relative to control; format: cell-based; settings: filed as antagonist, time 20-24 hrs
T1 sequence (whole entry): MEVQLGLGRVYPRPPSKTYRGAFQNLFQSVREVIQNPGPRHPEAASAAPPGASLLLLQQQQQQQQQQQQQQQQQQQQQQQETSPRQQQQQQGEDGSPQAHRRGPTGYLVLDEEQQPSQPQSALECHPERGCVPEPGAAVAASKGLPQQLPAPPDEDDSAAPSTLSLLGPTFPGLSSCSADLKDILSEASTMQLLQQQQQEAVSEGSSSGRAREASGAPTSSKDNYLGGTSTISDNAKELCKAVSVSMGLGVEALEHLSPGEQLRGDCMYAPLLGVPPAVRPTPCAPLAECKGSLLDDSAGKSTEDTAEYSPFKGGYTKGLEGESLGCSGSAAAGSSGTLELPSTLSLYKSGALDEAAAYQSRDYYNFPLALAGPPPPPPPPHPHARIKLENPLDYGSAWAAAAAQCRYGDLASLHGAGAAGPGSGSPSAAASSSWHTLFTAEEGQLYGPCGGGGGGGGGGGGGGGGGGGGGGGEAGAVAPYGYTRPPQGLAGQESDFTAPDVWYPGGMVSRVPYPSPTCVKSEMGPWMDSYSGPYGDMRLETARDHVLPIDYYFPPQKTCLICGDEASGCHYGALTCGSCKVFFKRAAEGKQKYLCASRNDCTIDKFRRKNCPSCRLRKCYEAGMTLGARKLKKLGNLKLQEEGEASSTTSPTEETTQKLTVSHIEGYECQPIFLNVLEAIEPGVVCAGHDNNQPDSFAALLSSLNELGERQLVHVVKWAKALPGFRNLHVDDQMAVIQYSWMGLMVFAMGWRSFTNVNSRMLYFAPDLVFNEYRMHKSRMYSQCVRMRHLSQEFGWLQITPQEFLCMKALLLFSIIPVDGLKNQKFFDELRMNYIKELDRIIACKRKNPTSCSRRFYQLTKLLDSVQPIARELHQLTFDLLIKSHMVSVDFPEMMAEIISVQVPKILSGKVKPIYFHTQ

[3] = Drug metabolism in dog liver microsomes assessed as unchanged parent compound at 10 uM incubated for 60 mins in presence of glutathione by LC-MS/MS analysis; format: ADME, Canis lupus familiaris, Microsome; settings: read-out: Drug metabolism
VCaP = assay: Antiproliferative activity against human VCaP cells expressing wild-type androgen receptor assessed as reduction in cell viability incubated for 5 days in presence of R1881 by CellTiter-glo assay; format: functional, cell-based; settings: 120 h
[4] = Apparent passive permeability from apical to basolateral side in MDCK-MDR1 cells in presence P-gp inhibitor; format: ADME, cell-based, Canis lupus familiaris; settings: dog, MDCK-MDR1, with P-gp inhibitor (name and concentration not stated)
[5] = AUC(0 to last) in CD1 mouse at 10 mg/kg, po; format: ADME, organism-based; parameters: route oral, time 0 - last, dose 10 mg/kg; settings: CD1, mouse, in vivo
[6] = Cmax in CD1 mouse at 10 mg/kg, po; format: ADME, organism-based; parameters: route oral, dose 10 mg/kg; settings: in vivo
[7] = Clearance in CD1 mouse at 2 mg/kg, iv; format: ADME, organism-based; settings: in vivo
[8] = Half life in CD1 mouse at 2 mg/kg, iv; format: ADME, organism-based; settings: in vivo
[9] = Volume of distribution at steady state in CD1 mouse at 2 mg/kg, iv; format: ADME, organism-based; settings: in vivo, read-out: Vdss
[10] = Oral bioavailability in CD1 mouse at 10 mg/kg; format: ADME, organism-based; settings: CD1, mouse, in vivo
[11] = tested on: liver microsomes (Homo sapiens); assay: Half life in human liver microsomes
Androgen receptor = Androgen receptor (Homo sapiens, UniProt P10275, F877L)
[12] = target: T2, Androgen receptor (Rattus norvegicus) (UniProt P15207); settings: Sprague-Dawley, dose 30.0 mg/kg, time 10.0 day
T2 sequence (whole entry): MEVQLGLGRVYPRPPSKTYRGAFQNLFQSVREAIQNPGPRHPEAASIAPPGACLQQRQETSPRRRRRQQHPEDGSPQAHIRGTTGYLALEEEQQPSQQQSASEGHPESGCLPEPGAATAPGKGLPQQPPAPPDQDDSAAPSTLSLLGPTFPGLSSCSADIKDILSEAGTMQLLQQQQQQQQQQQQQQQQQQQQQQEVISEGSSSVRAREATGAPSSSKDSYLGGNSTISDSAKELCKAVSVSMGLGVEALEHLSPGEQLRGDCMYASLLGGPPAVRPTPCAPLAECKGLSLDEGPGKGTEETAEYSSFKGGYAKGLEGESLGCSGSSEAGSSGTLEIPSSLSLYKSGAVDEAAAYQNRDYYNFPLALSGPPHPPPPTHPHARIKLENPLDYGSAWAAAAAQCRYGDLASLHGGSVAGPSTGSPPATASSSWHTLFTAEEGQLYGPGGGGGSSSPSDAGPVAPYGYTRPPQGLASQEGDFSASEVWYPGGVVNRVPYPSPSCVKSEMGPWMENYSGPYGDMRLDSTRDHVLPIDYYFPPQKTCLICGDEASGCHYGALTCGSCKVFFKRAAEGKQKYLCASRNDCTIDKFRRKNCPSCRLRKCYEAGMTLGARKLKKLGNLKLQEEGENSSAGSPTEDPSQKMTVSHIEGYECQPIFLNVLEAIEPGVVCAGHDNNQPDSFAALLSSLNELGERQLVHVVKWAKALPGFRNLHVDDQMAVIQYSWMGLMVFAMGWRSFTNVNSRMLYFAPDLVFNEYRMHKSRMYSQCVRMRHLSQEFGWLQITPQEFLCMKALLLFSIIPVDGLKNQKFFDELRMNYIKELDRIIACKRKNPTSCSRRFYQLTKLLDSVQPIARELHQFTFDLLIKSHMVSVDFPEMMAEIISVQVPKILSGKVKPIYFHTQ

[13] = target: T2, Androgen receptor (Rattus norvegicus); settings: Sprague-Dawley, dose 30.0 mg/kg, time 10.0 day; remark: listed apart in the source
[14] = target: T2, Androgen receptor (Rattus norvegicus); settings: Sprague-Dawley, dose 30.0 mg/kg, time 10.0 day; remark: listed apart in the source
[15] = target: T2, Androgen receptor (Rattus norvegicus); settings: Sprague-Dawley, dose 30.0 mg/kg, time 10.0 day; remark: listed apart in the source
[16] = target: T2, Androgen receptor (Rattus norvegicus); settings: Sprague-Dawley, dose 30.0 mg/kg, time 10.0 day; remark: listed apart in the source
LNCaP = assay: Antitumor activity against human LNCaP cells harboring AR F877L mutant xenografted in SCID mouse assessed as tumor growth inhibition at 30 mg/kg, po QD administered via gavage for 28 days and measured twice weekly relative to control; format: functional; settings: time 28 day, read-out: TGI
[17] = Drug concentration in SCID mouse plasma xenografted with human LNCaP cells harboring AR F877L mutant at 30 mg/kg, po QD administered via gavage for 28 days; format: ADME, organism-based; settings: time 28 day, read-out: Ct

Row | Structure (SMILES) | remaining at 1 h, 10 µM [1] [%] | Imax [2] [%] | remaining at 1 h, 10 µM [3] [%] | IC50 (VCaP) [nM] | Papp A→B [4] [×10⁻⁶ cm/s] | AUC(0-t) [5] [ng·h/mL] | Cmax [6] [nM] | clearance [7] [mL/min/kg] | half-life [8] [h] | Vd [9] [L/kg] | bioavailability [10] [%] | half-life [11] [h] | EC50 (Androgen receptor) [nM] | inhibition [12] | inhibition [13] | inhibition [14] | inhibition [15] | inhibition [16] | concentration at […] [17] [ng/mL] | inhibition in vivo at 30 mg/kg (LNCaP) [%]
1 | N#Cc1ncc(N2C(=O)C3(CCC3)N(c3ccc(O)cc3)C2=S)cc1C(F)(F)F | 91.9 | – | – | – | – | – | – | – | – | – | – | – | – | – | – | – | – | – | – | –
2 | CN1CCC(Oc2ccc(N3C(=S)N(c4cnc(C#N)c(C(F)(F)F)c4)C(=O)C34CCC4)cn2)CC1 | – | > 90 | – | 394 | 16.2 | 10900 | 1300 | 8.14 | 12.5 | 7.69 | 56 | 2.88 | – | – | – | – | – | – | – | –
3 | COc1cc(N2C(=O)C3(CCC3)N(c3ccc(OC4CCN(C)CC4)cc3)C2=S)cnc1C#N | – | > 90 | – | 263 | – | 20100 | 2800 | 6.9 | 7.8 | 3.7 | 87 | 1.9 | 649 | Active | Active | Active | Active | Active | – | –
4 | N#Cc1ncc(N2C(=O)C3(CCC3)N(c3cnc(OC4CCNCC4)nc3)C2=S)cc1C(F)(F)F | – | 67 | – | – | – | – | – | – | – | – | – | – | – | – | – | – | – | – | – | –
5 | N#Cc1ncc(N2C(=O)C3(CCC3)N(c3ccc(OC4CCNCC4)nc3)C2=S)cc1Cl | – | > 90 | – | 250 | 11.5 | 6000 | 1880 | 25.4 | 4.1 | 6.92 | 118 | > 3 | – | Active | Active | Active | Active | Active | – | –
6 | CN1CCC(Oc2ncc(N3C(=S)N(c4cnc(C#N)c(C(F)(F)F)c4)C(=O)C34CCC4)cn2)CC1 | – | > 90 | – | – | – | – | – | – | – | – | – | – | – | – | – | – | – | – | – | –

Now from value to compound, other results behind:

Row | remaining at 1 h, 10 µM [1] [%] | Imax [2] [%] | remaining at 1 h, 10 µM [3] [%] | IC50 (VCaP) [nM] | Papp A→B [4] [×10⁻⁶ cm/s] | AUC(0-t) [5] [ng·h/mL] | Cmax [6] [nM] | clearance [7] [mL/min/kg] | half-life [8] [h] | Vd [9] [L/kg] | bioavailability [10] [%] | half-life [11] [h] | EC50 (Androgen receptor) [nM] | inhibition [12] | inhibition [13] | inhibition [14] | inhibition [15] | inhibition [16] | concentration at […] [17] [ng/mL] | Structure (SMILES) | inhibition in vivo at 30 mg/kg (LNCaP) [%]
7 | 100 | > 90 | 100 | – | – | – | – | – | – | – | – | – | – | – | – | – | – | – | – | N#Cc1ncc(N2C(=O)C3(CCC3)N(c3ccc(O)nc3)C2=S)cc1C(F)(F)F | –
8 | 98.8 | > 90 | 100 | 265 | 5.62 | 4900 | 660 | 15 | 5.99 | 6.11 | 45 | > 3 | – | Active | Active | Active | Active | Active | 1750 | N#Cc1ncc(N2C(=O)C3(CCC3)N(c3ccc(OC4CCNCC4)nc3)C2=S)cc1C(F)(F)F [TRC-253] | 87
9 | – | > 90 | – | 503 | 12.2 | 4600 | 780 | 26.7 | 3.7 | 8.47 | 50 | > 3 | 45 | Active | Active | Active | Active | Active | – | N#Cc1ncc(N2C(=O)C3(CCC3)N(c3ccc(OC4CCNCC4)cc3)C2=S)cc1Cl | –
10 | – | – | – | 149 | – | – | – | – | – | – | – | – | – | Active | Active | Active | Active | Active | – | CNC(=O)c1ccc(N2C(=S)N(c3ccc(C#N)c(C(F)(F)F)c3)C(=O)C2(C)C)cc1F [ENZALUTAMIDE] | –
11 | – | > 90 | – | 2780 | 6.31 | 8700 | 840 | 18.2 | 12.1 | 16.8 | 97 | > 3 | – | inactive | inactive | inactive | inactive | inactive | – | N#Cc1ncc(N2C(=O)C3(CCC3)N(c3ccc(CN4CCNCC4)cc3)C2=S)cc1C(F)(F)F | –
12 | – | > 90 | – | 264 | 3.38 | 7800 | 1880 | 19.4 | 3 | 4.35 | 92 | > 3 | – | – | – | – | – | – | – | Cc1cc(N2C(=O)C3(CCC3)N(c3ccc(OC4CCNCC4)nc3)C2=S)cnc1C#N | –
